Assay results: patent publication US10766903B2 (ALMAC DISCOVERY LIMITED, priority 2016, dated 2020)
Counter-ions that a name gives are not always drawn.

target: USP7 (Homo sapiens (Human), UniProt Q93009); test: USP7 fluorescence polarisation (FP) biochemical assay, ubiquitin-Lys-TAMRA substrate; settings: not given
Outline: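 Full-length His6-USP7 (2.5 nM) incubated ± inhibitor (8-point dilutions, 200 to 0.1 μM before addition) in 50 mM HEPES pH 7.2, 150 mM NaCl, 0.5 mM EDTA, 5 mM DTT, 0.05% BSA, 0.05% CHAPS. Ubiquitin-Lys-TAMRA cleavage followed by FP (ex 530/em 575 nm) every 15 min for 1.5 h; normalised to no-compound control.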

Sequence of USP7 (Q93009 whole entry): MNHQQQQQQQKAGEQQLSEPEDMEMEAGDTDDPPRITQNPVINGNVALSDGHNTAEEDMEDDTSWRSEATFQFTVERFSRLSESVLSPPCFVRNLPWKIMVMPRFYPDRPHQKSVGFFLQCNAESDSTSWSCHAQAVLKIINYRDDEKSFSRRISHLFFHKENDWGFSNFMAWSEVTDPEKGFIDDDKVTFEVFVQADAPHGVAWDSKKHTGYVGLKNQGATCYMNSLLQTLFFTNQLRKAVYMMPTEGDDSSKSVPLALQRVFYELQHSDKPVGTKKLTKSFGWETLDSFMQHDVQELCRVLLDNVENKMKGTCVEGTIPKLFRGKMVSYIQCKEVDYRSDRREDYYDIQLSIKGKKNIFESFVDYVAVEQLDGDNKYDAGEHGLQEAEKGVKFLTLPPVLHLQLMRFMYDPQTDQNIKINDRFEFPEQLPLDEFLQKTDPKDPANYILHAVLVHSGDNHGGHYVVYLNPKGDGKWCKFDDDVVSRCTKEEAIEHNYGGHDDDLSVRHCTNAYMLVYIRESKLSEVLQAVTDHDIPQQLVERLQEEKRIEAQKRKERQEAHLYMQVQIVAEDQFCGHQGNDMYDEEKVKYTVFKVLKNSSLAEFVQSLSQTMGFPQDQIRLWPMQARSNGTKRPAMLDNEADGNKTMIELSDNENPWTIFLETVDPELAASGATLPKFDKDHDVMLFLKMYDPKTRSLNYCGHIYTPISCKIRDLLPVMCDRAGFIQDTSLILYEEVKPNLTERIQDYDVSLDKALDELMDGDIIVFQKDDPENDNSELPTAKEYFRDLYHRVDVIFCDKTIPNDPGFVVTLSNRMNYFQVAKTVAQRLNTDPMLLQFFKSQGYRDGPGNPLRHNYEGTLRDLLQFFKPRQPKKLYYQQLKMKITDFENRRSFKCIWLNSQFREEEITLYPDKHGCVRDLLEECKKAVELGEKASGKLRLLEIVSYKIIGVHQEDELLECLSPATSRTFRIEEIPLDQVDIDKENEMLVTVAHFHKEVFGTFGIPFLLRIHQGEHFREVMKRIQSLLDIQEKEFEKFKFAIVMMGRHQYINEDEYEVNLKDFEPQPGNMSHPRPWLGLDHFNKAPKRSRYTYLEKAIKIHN

Row | Structure (SMILES) | IC50
1 | C[C@H](CC(=O)N1CCC(O)(Cn2cnc(Nc3ccc4c(c3)C3CCC4N3)cc2=O)CC1)c1ccccc1 (stereo partly drawn) [Example 42, 3-((4-Hydroxy-1-((R)-3-phenylbutanoyl)piperidin-4-yl)methyl)-6-((1,2,3,4-tetrahydro-1,4-epiminonaphthalen-6-yl)amino)pyrimidin-4(3H)-one hydrochloride] | 0.25 to 0.999 µM
2 | C[C@H](CC(=O)N1CCC(O)(Cn2cnc3c(-c4cccc(CN5CCOCC5)c4)n(C)nc3c2=O)CC1)c1ccccc1 [Example 108, (R)-6-((4-Hydroxy-1-(3-phenylbutanoyl)piperidin-4-yl)methyl)-2-methyl-3-(3-(morpholinomethyl)phenyl)-2H-pyrazolo[4,3-d]pyrimidin-7(6H)-one] | 0.25 to 0.999 µM

same assay, conditions: Table 4, biochemical assay; average of at least duplicate experiments; read-out: USP7 IC50

Row | IC50 | Structure (SMILES)
3 | < 0.25 µM | [2H]C1([2H])Oc2ccc(-n3c(Cl)cc4c(=O)n(CC5(O)CCN(C(=O)c6cnc(C7CC7)o6)CC5)cnc43)cc2O1 [Example 236, 7-(Benzo[d][1,3]dioxol-5-yl-2,2-d2)-6-chloro-3-((1-(2-cyclopropyloxazole-5-carbonyl)-4-hydroxypiperidin-4-yl)methyl)-3,7-dihydro-4H-pyrrolo[2,3-d]pyrimidin-4-one]
4 | < 0.25 µM | COc1ccc(-n2c(Cl)cc3c(=O)n(CC4(O)CCN(C(=O)c5cnc(C6CC6)o5)CC4)cnc32)cc1OC [Example 240, 6-Chloro-3-((1-(2-cyclopropyloxazole-5-carbonyl)-4-hydroxypiperidin-4-yl)methyl)-7-(3,4-dimethoxyphenyl)-3,7-dihydro-4H-pyrrolo[2,3-d]pyrimidin-4-one]
5 | < 0.25 µM | COc1cc(-n2c(Cl)cc3c(=O)n(CC4(O)CCN(C(=O)c5cnc(C6CC6)o5)CC4)cnc32)ccc1F [Example 206, 6-Chloro-3-((1-(2-cyclopropyloxazole-5-carbonyl)-4-hydroxypiperidin-4-yl)methyl)-7-(4-fluoro-3-methoxyphenyl)-3H-pyrrolo[2,3-d]pyrimidin-4(7H)-one]
6 | 0.25 to 0.999 µM | Cn1nc2c(=O)n(CC3(O)CCN(C(=O)C[C@H](c4ccccc4)C(F)(F)F)CC3)cnc2c1-c1ccccc1 [Example 37, (R)-6-((4-Hydroxy-1-(4,4,4-trifluoro-3-phenylbutanoyl)piperidin-4-yl)methyl)-2-methyl-3-phenyl-2H-pyrazolo[4,3-d]pyrimidin-7(6H)-one]
7 | 1 to 200 µM | C[C@H](CC(=O)N1CCC(O)(Cn2cnc(N3CCN(C)C(=O)C3)cc2=O)CC1)c1ccccc1 [Example 168, (R)-3-((4-hydroxy-1-(3-phenylbutanoyl)piperidin-4-yl)methyl)-6-(4-methyl-3-oxopiperazin-1-yl)pyrimidin-4(3H)-one]
8 | 1 to 200 µM | C[C@H](CC(=O)N1CCC(O)(Cn2cnc3c(-c4cccc(C(=O)O)c4)n(C)nc3c2=O)CC1)c1ccccc1 [Example 244, (R)-3-(6-((4-Hydroxy-1-(3-phenylbutanoyl)piperidin-4-yl)methyl)-2-methyl-7-oxo-6,7-dihydro-2H-pyrazolo[4,3-d]pyrimidin-3-yl)benzoic Acid]
9 | < 0.25 µM | Cn1nc2c(=O)n(CC3(O)CCN(C(=O)C[C@H](c4ccccc4)C(F)(F)F)CC3)cnc2c1-c1ccc(CCN)cc1 [Example 87, (R)-3-(4-(2-Aminoethyl)phenyl)-6-((4-hydroxy-1-(4,4,4-trifluoro-3-phenylbutanoyl)piperidin-4-yl)methyl)-2-methyl-2H-pyrazolo[4,3-d]pyrimidin-7(6H)-one]
10 | 1 to 200 µM | C[C@H](CC(=O)N1CCC(O)(Cn2cnc(N3CCN(C)CC3)cc2=O)CC1)c1ccccc1 [Example 8, (R)-3-((4-Hydroxy-1-(3-phenylbutanoyl)piperidin-4-yl)methyl)-6-(4-methylpiperazin-1-yl)pyrimidin-4(3H)-one]
11 | 1 to 200 µM | Cc1c(NCCN2CCCC2)ncn(CC2(O)CCN(C(=O)C[C@@H](C)c3ccccc3)CC2)c1=O [Example 111, (R)-3-((4-Hydroxy-1-(3-phenylbutanoyl)piperidin-4-yl)methyl)-5-methyl-6-((2-(pyrrolidin-1-yl)ethyl)amino)pyrimidin-4(3H)-one]
12 | 0.25 to 0.999 µM | Cn1nc2c(=O)n(CC3(O)CCN(C(=O)CC(C4CC4)C4CC4)CC3)cnc2c1-c1ccccc1 [Example 193, 6-((1-(3,3-Dicyclopropylpropanoyl)-4-hydroxypiperidin-4-yl)methyl)-2-methyl-3-phenyl-2H-pyrazolo[4,3-d]pyrimidin-7(6H)-one]
13 | 1 to 200 µM | Cn1nc2c(=O)n(CC3(O)CCN(C(=O)CCc4ccccc4)CC3)cnc2c1C(F)(F)F [Example 95, 6-((4-Hydroxy-1-(3-phenylpropanoyl)piperidin-4-yl)methyl)-2-methyl-3-(trifluoromethyl)-2H-pyrazolo[4,3-d]pyrimidin-7(6H)-one]
14 | 0.25 to 0.999 µM | C[C@H](CC(=O)N1CCC(O)(Cn2cnc3c(-c4ccncc4)n(C)nc3c2=O)CC1)c1ccccc1 [Example 26, (R)-6-((4-Hydroxy-1-(3-phenylbutanoyl)piperidin-4-yl)methyl)-2-methyl-3-(pyridin-4-yl)-2H-pyrazolo[4,3-d]pyrimidin-7(6H)-one]
15 | 0.25 to 0.999 µM | Cn1nccc1-c1cc(-n2c(Cl)cc3c(=O)n(CC4(O)CCN(C(=O)C5(C)CC5)CC4)cnc32)ccc1F [Example 231, 6-Chloro-7-(4-fluoro-3-(1-methyl-1H-pyrazol-5-yl)phenyl)-3-((4-hydroxy-1-(1-methylcyclopropanecarbonyl)piperidin-4-yl)methyl)-3H-pyrrolo[2,3-d]pyrimidin-4(7H)-one]
16 | < 0.25 µM | COCC(CC(=O)N1CCC(O)(Cn2cnc3c(-c4ccc(CN)cc4)n(C)nc3c2=O)CC1)c1ccccc1 (racemic) [Example 53, (R,S)-3-(4-(Aminomethyl)phenyl)-6-((4-hydroxy-1-(4-methoxy-3-phenylbutanoyl)piperidin-4-yl)methyl)-2-methyl-2H-pyrazolo[4,3-d]pyrimidin-7(6H)-one]
17 | 1 to 200 µM | C[C@H](CC(=O)N1CCC(O)(Cn2cnc(NCCN3CCCC3)c(Br)c2=O)CC1)c1ccccc1 [Example 45, (R)-5-Bromo-3-((4-hydroxy-1-(3-phenylbutanoyl)piperidin-4-yl)methyl)-6-((2-(pyrrolidin-1-yl)ethyl)amino)pyrimidin-4(3H)-one]
18 | 1 to 200 µM | C[C@H](CC(=O)N1CCC(O)(Cn2cnc(N(CCO)Cc3cccnc3)cc2=O)CC1)c1ccccc1 [Example 177, (R)-3-((4-hydroxy-1-(3-phenylbutanoyl)piperidin-4-yl)methyl)-6-((2-hydroxyethyl)(pyridin-3-ylmethyl)amino)pyrimidin-4(3H)-one]
19 | 1 to 200 µM | C[C@H](CC(=O)N1CCC(O)(Cn2cnc(NCc3ccc4c(c3)OCCO4)cc2=O)CC1)c1ccccc1 [Example 162, (R)-6-(((2,3-dihydrobenzo[b][1,4]dioxin-6-yl)methyl)amino)-3-((4-hydroxy-1-(3-phenylbutanoyl)piperidin-4-yl)methyl)pyrimidin-4(3H)-one]
20 | < 0.25 µM | CC1(C(=O)N2CCC(O)(Cn3cnc4c(cc(Cl)n4-c4cccc(C5CC5)c4)c3=O)CC2)CC1 [Example 218, 6-Chloro-7-(3-cyclopropylphenyl)-3-((4-hydroxy-1-(1-methylcyclopropanecarbonyl)piperidin-4-yl)methyl)-3H-pyrrolo[2,3-d]pyrimidin-4(7H)-one]
21 | 0.25 to 0.999 µM | Cn1nccc1-c1cccc(-n2c(Cl)cc3c(=O)n(CC4(O)CCN(C(=O)C5(C)CC5)CC4)cnc32)c1 [Example 208, 6-Chloro-3-((4-hydroxy-1-(1-methylcyclopropanecarbonyl)piperidin-4-yl)methyl)-7-(3-(1-methyl-1H-pyrazol-5-yl)phenyl)-3H-pyrrolo[2,3-d]pyrimidin-4(7H)-one]
22 | 1 to 200 µM | C[C@H](CC(=O)N1CCC(O)(Cn2cnc(Cl)cc2=O)CC1)c1ccccc1 [Example 1, (R)-6-Chloro-3-((4-hydroxy-1-(3-phenylbutanoyl)piperidin-4-yl)methyl)pyrimidin-4(3H)-one]
23 | 1 to 200 µM | C[C@H](CC(=O)N1CCC(O)(Cn2cnc3c(nc(-c4ccccc4)n3C)c2=O)CC1)c1ccccc1 [Example 16, (R)-1-((4-Hydroxy-1-(3-phenylbutanoyl)piperidin-4-yl)methyl)-9-methyl-8-phenyl-1H-purin-6(9H)-one]
24 | 1 to 200 µM | C[C@H](CC(=O)N1CCC(O)(Cn2cnc(N3CCC(O)CC3)cc2=O)CC1)c1ccccc1 [Example 144, (R)-3-((4-hydroxy-1-(3-phenylbutanoyl)piperidin-4-yl)methyl)-6-(4-hydroxypiperidin-1-yl)pyrimidin-4(3H)-one]

Row | Structure (SMILES) | IC50
25 | C[C@H](CC(=O)N1CCC(O)(Cn2cnc(NC[C@@H](C)N3CCCC3)cc2=O)CC1)c1ccccc1 [Example 58, 3-((4-Hydroxy-1-((R)-3-phenylbutanoyl)piperidin-4-yl)methyl)-6-(((R)-2-(pyrrolidin-1-yl)propyl)amino)pyrimidin-4(3H)-one] | < 0.25 µM

same assay, conditions: USP7 IC50, Table 4, biochemical assay; average of at least duplicate experiments

Row | IC50 | Structure (SMILES)
26 | 0.25 to 0.999 µM | C[C@H](CC(=O)N1CCC(O)(Cn2cnc(N3CC4(CCOC4)C3)cc2=O)CC1)c1ccccc1 [Example 176, (R)-3-((4-hydroxy-1-(3-phenylbutanoyl)piperidin-4-yl)methyl)-6-(6-oxa-2-azaspiro[3.4]octan-2-yl)pyrimidin-4(3H)-one]
27 | 0.25 to 0.999 µM | Cn1nc2c(=O)n(CC3(O)CCN(C(=O)C[C@H](c4ccccc4)C(F)(F)F)CC3)cnc2c1-c1ccc([C@@H](N)C(F)(F)F)cc1 [Example 118, 3-(4-((R)-1-Amino-2,2,2-trifluoroethyl)phenyl)-6-((4-hydroxy-1-((R)-4,4,4-trifluoro-3-phenylbutanoyl)piperidin-4-yl)methyl)-2-methyl-2H-pyrazolo[4,3-d]pyrimidin-7(6H)-one]

Row | Structure (SMILES) | IC50
28 | C[C@H](CC(=O)N1CCC(O)(Cn2cnc(N3CCC(N)CC3)cc2=O)CC1)c1ccccc1 [Example 48, (R)-6-(4-Aminopiperidin-1-yl)-3-((4-hydroxy-1-(3-phenylbutanoyl)piperidin-4-yl)methyl)pyrimidin-4(3H)-one hydrochloride] | 0.25 to 0.999 µM
